Key:
Assay type in all cases: biochemical
Conditions in all cases: ADP-Glo SIK kinase assay
SIK1 = biological target: T1, SIK1 (Homo sapiens, UniProt P57059); test: ADP-Glo kinase assay, SIK1
T1 construct: purchased Carna Biosciences 02-131
Summary of the method: (§1)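 Enzyme–substrate mix was started with ATP and incubated 120 min at RT. ADP formed was quantified by ADP-Glo: 40 min ATP depletion, then 30 min detection reagent converting ADP to ATP for luciferase luminescence, which rises with kinase activity. Controls: 1% DMSO and 10 μM staurosporine (final).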

SIK2 = biological target: T2, SIK2 (Homo sapiens, UniProt Q9H0K1); test: ADP-Glo kinase assay, SIK2
T2 construct: purchased ThermoFisher Scientific PV4792
T2 sequence (Q9H0K1 whole entry): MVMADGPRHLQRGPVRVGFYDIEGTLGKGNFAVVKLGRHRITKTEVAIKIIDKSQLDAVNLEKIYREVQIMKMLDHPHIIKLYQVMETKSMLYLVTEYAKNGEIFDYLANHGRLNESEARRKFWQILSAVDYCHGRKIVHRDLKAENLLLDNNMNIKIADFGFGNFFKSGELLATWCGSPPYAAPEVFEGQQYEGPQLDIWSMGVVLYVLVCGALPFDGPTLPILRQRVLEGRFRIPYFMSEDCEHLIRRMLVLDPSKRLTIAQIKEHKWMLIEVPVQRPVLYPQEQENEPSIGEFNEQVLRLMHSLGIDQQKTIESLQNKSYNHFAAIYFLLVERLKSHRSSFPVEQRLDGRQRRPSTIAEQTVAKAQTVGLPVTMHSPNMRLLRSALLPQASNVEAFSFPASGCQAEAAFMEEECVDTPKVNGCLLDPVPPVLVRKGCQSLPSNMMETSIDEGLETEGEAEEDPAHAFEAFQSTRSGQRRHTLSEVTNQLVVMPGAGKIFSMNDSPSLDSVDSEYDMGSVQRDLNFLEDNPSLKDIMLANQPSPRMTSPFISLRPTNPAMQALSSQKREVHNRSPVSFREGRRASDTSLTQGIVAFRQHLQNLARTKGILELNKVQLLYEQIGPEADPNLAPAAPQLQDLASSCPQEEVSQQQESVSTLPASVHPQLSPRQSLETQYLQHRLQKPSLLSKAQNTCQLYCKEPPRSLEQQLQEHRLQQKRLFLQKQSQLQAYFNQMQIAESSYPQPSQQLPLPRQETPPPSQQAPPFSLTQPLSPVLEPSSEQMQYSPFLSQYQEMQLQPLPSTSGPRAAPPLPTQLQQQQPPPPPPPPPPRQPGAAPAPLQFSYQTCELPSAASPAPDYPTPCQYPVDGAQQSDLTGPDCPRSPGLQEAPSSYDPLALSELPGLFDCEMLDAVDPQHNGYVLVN
Summary of the method: as §1

SIK3 = biological target: T3, SIK3 (Homo sapiens, UniProt Q9Y2K2); test: ADP-Glo kinase assay, SIK3
T3 construct: purchased SignalChem S12-11G-100
T3 sequence (Q9Y2K2 whole entry): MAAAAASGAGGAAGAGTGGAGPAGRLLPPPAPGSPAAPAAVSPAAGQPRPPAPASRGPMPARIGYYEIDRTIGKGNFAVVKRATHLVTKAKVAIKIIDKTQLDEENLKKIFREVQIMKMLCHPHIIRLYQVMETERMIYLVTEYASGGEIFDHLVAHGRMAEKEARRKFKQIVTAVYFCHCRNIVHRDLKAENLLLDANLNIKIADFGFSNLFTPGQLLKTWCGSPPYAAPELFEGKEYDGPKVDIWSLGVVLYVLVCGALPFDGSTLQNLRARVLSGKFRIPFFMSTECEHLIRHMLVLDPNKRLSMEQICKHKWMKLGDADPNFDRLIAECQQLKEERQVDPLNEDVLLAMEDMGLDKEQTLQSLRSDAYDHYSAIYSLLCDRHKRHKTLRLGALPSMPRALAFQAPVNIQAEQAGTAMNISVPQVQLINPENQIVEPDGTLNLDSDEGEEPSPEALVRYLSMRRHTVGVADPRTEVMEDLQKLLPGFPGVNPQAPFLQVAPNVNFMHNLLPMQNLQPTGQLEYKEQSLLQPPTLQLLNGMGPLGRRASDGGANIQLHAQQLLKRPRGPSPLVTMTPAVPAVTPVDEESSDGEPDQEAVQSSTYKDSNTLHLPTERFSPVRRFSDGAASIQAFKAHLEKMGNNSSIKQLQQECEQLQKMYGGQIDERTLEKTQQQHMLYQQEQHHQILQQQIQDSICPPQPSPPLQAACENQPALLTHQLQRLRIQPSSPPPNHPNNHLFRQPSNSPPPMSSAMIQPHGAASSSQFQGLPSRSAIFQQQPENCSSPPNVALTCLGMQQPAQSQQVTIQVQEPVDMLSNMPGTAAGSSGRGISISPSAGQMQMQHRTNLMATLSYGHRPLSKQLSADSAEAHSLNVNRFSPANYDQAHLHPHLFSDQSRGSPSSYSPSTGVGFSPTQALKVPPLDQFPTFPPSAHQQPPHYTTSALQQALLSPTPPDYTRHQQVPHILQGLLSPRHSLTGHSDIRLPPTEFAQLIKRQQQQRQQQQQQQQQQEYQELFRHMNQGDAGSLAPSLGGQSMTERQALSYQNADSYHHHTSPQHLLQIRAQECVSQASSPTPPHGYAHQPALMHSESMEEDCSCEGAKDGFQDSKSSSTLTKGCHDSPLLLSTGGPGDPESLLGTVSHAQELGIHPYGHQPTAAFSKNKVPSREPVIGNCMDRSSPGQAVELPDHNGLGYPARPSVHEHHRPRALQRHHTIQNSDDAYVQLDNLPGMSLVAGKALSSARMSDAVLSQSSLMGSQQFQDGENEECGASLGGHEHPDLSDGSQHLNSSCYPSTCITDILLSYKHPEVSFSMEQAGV
Summary of the method: as §1

T1 sequence (P57059 whole entry): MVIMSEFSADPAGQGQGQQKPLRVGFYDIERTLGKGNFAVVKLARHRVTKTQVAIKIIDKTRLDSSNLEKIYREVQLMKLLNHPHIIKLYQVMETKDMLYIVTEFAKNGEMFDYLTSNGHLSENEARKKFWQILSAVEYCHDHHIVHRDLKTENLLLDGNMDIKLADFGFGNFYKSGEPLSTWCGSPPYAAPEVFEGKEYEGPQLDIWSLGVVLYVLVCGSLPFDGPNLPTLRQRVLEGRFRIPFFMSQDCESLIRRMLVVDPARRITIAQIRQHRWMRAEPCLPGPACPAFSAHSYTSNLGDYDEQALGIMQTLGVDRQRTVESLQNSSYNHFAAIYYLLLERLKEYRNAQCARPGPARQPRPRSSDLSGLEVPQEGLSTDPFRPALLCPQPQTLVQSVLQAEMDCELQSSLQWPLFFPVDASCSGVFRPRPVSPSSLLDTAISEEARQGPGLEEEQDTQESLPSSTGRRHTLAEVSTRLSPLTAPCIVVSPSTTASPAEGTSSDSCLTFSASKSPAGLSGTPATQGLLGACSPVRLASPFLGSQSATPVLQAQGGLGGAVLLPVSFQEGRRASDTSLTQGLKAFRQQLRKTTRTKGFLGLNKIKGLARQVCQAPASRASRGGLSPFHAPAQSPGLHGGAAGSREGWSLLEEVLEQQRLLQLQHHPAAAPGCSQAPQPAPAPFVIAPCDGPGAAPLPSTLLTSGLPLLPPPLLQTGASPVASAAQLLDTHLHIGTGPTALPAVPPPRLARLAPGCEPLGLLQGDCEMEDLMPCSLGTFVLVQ

Compound `COc1cc(-c2cnc3cc(OCC(N)C(C)C)ccn23)cc(OC(F)F)c1C(=O)NC1CC1` (stereo not drawn) [compound 121, 4-[7-(2-amino-3-methyl-butoxy)imidazo[1,2-a]pyridin-3-yl]-N-cyclopropyl-2-(difluoromethoxy)-6-methoxy-benzamide] has an IC50 (SIK1) of 10 to 100 nM, an IC50 (SIK2) of 0.01 to 10 nM and an IC50 (SIK3) of 0.01 to 10 nM.

With `CCC(N)COc1ccn2c(-c3cc(OC)c(C(=O)NC4CC4)c(OC(F)F)c3)cnc2c1` (stereo not drawn) [compound 131, 4-[7-(2-aminobutoxy)imidazo[1,2-a]pyridin-3-yl]-N-cyclopropyl-2-(difluoromethoxy)-6-methoxy-benzamide] the IC50 (SIK1) was 10 to 100 nM, the IC50 (SIK2) was 0.01 to 10 nM and the IC50 (SIK3) was 0.01 to 10 nM.

`COc1cc(-c2cnc3cc(OC[C@@H](N)CC(C)C)ccn23)cc(OC(F)F)c1C(=O)NC1CC1` [compound 132, 4-[7-[(2S)-2-amino-4-methyl-pentoxy]imidazo[1,2-a]pyridin-3-yl]-N-cyclopropyl-2-(difluoromethoxy)-6-methoxy-benzamide] showed an IC50 (SIK1) of 10 to 100 nM, an IC50 (SIK2) of 0.01 to 10 nM and an IC50 (SIK3) of 0.01 to 10 nM.

`COc1cc(-c2cnc3cc(OC[C@@H](N)C4CCCCC4)ccn23)cc(OC(F)F)c1C(=O)NC1CC1` [compound 133, 4-[7-[(2S)-2-amino-2-cyclohexyl-ethoxy]imidazo[1,2-a]pyridin-3-yl]-N-cyclopropyl-2-(difluoromethoxy)-6-methoxy-benzamide] gave an IC50 (SIK1) of 10 to 100 nM, an IC50 (SIK2) of 0.01 to 10 nM and an IC50 (SIK3) of 0.01 to 10 nM.

Compound `COc1cc(-c2cnc3cc(OCC(N)C4CCOC4)ccn23)cc(OC(F)F)c1C(=O)NC1CC1` (stereo not drawn) [compound 134, 4-[7-(2-amino-2-tetrahydrofuran-3-yl-ethoxy)imidazo[1,2-a]pyridin-3-yl]-N-cyclopropyl-2-(difluoromethoxy)-6-methoxy-benzamide] has an IC50 (SIK1) of 10 to 100 nM, an IC50 (SIK2) of 0.01 to 10 nM and an IC50 (SIK3) of 0.01 to 10 nM.

With `COc1cc(-c2cnc3cc(OCC(N)C4CCOCC4)ccn23)cc(OC(F)F)c1C(=O)NC1CC1` (stereo not drawn) [compound 135, 4-[7-(2-amino-2-tetrahydropyran-4-yl-ethoxy)imidazo[1,2-a]pyridin-3-yl]-N-cyclopropyl-2-(difluoromethoxy)-6-methoxy-benzamide] the IC50 (SIK1) was 10 to 100 nM, the IC50 (SIK2) was 0.01 to 10 nM and the IC50 (SIK3) was 0.01 to 10 nM.

`COc1cc(-c2cnc3cc(OCC(N)C4CCCO4)ccn23)cc(OC(F)F)c1C(=O)NC1CC1` (stereo not drawn) [compound 136, 4-[7-(2-amino-2-tetrahydrofuran-2-yl-ethoxy)imidazo[1,2-a]pyridin-3-yl]-N-cyclopropyl-2-(difluoromethoxy)-6-methoxy-benzamide] gave an IC50 (SIK1) of 10 to 100 nM, an IC50 (SIK2) of 0.01 to 10 nM and an IC50 (SIK3) of 0.01 to 10 nM.

Compound `COc1cc(-c2cnc3cc(OCC(N)C4CC4)ccn23)cc(OC(F)F)c1C(=O)NC1CC1` (stereo not drawn) [compound 137, 4-[7-(2-amino-2-cyclopropyl-ethoxy)imidazo[1,2-a]pyridin-3-yl]-N-cyclopropyl-2-(difluoromethoxy)-6-methoxy-benzamide] has an IC50 (SIK1) of 10 to 100 nM, an IC50 (SIK2) of 0.01 to 10 nM and an IC50 (SIK3) of 0.01 to 10 nM.

Work on `CCOc1cc(-c2cnc3cc(OCCN(C)C)ccn23)cc2c1C(=O)N(CC(F)(F)F)CC2` [compound 140, 6-[7-[2-(dimethylamino)ethoxy]imidazo[1,2-a]pyridin-3-yl]-8-ethoxy-2-(2,2,2-trifluoroethyl)-3,4-dihydroisoquinolin-1-one] yielded an IC50 (SIK1) greater than 500 nM, an IC50 (SIK2) of 10 to 100 nM and an IC50 (SIK3) of 100 to 500 nM.

Work on `COc1cc(-c2cnc3cc(OCC4CCCN(C=O)C4)ccn23)cc(OC(F)F)c1C(=O)NC1CC1` (stereo not drawn) [compound 142, N-cyclopropyl-2-(difluoromethoxy)-4-[7-[(1-formyl-3-piperidyl)methoxy]imidazo [1,2-a]pyridin-3-yl]-6-methoxy-benzamide] yielded an IC50 (SIK1) of 0.01 to 10 nM, an IC50 (SIK2) of 0.01 to 10 nM and an IC50 (SIK3) of 0.01 to 10 nM.

Compound `COc1cc(-c2cnc3cc(OCC4CCCNC4)ccn23)cc(OC(F)F)c1C(=O)NC1CC1` (stereo not drawn) [compound 143, N-cyclopropyl-2-(difluoromethoxy)-6-methoxy-4-[7-(3-piperidylmethoxy)imidazo[1,2-a]pyridin-3-yl]benzamide] has an IC50 (SIK1) of 0.01 to 10 nM, an IC50 (SIK2) of 0.01 to 10 nM and an IC50 (SIK3) of 0.01 to 10 nM.

`COc1cc(-c2cnc3cc(OCC4CCN(C)C4)ccn23)cc(OC(F)F)c1C(=O)NC1CC1` (stereo not drawn) [compound 144, N-cyclopropyl-2-(difluoromethoxy)-6-methoxy-4-[7-[(1-methylpyrrolidin-3-yl)methoxy]imidazo[1,2-a]pyridin-3-yl]benzamide] was tested, and the IC50 (SIK1) was 10 to 100 nM, the IC50 (SIK2) was 0.01 to 10 nM and the IC50 (SIK3) was 0.01 to 10 nM.

For `COc1cc(-c2cnc3cc(Oc4ccccn4)ccn23)cc(OC(F)F)c1C(=O)NC1CC1` [compound 145, N-cyclopropyl-2-(difluoromethoxy)-6-methoxy-4-[7-(2-pyridyloxy)imidazo[1,2-a]pyridin-3-yl]benzamide], the IC50 (SIK1) was 100 to 500 nM, the IC50 (SIK2) was 10 to 100 nM and the IC50 (SIK3) was 10 to 100 nM.

`CN(C)CCOc1ccn2c(-c3cc(F)c(C(=O)NC4CC4)c(OC(F)F)c3)cnc2c1` [compound 146, N-cyclopropyl-2-(difluoromethoxy)-4-[7-[2-(dimethylamino)ethoxy]imidazo[1,2-a]pyridin-3-yl]-6-fluoro-benzamide] gave an IC50 (SIK1) greater than 500 nM, an IC50 (SIK2) of 10 to 100 nM and an IC50 (SIK3) of 10 to 100 nM.

For `COc1cc(-c2cnc3cc(OCC4CCCCN4C(C)C)ccn23)cc(OC(F)F)c1C(=O)NC1CC1` (stereo not drawn) [compound 148, N-cyclopropyl-2-(difluoromethoxy)-4-[7-[(1-isopropyl-2-piperidyl)methoxy]imidazo [1,2-a]pyridin-3-yl]-6-methoxy-benzamide], the IC50 (SIK1) was 100 to 500 nM, the IC50 (SIK2) was 0.01 to 10 nM and the IC50 (SIK3) was 0.01 to 10 nM.

In the case of `COc1cc(-c2cnc3cc(OCC4CCCCN4CC(F)F)ccn23)cc(OC(F)F)c1C(=O)NC1CC1` (stereo not drawn) [compound 149, N-cyclopropyl-4-[7-[[1-(2,2-difluoroethyl)-2-piperidyl]methoxy]imidazo [1,2-a]pyridin-3-yl]-2-(difluoromethoxy)-6-methoxy-benzamide], the IC50 (SIK1) is reported as 10 to 100 nM, the IC50 (SIK2) is reported as 10 to 100 nM and the IC50 (SIK3) is reported as 0.01 to 10 nM.

Compound `COc1cc(-c2cnc3cc(OC4CCC4)ccn23)cc(OC(F)F)c1C(=O)NC1CC1` [compound 151, 4-[7-(cyclobutoxy)imidazo[1,2-a]pyridin-3-yl]-N-cyclopropyl-2-(difluoromethoxy)-6-methoxy-benzamide] has an IC50 (SIK1) of 10 to 100 nM, an IC50 (SIK2) of 0.01 to 10 nM and an IC50 (SIK3) of 0.01 to 10 nM.

`COc1cc(-c2cnc3cc(OC4COC4)ccn23)cc(OC(F)F)c1C(=O)NC1CC1` [compound 152, N-cyclopropyl-2-(difluoromethoxy)-6-methoxy-4-[7-(oxetan-3-yloxy)imidazo[1,2-a]pyridin-3-yl]benzamide] showed an IC50 (SIK1) of 10 to 100 nM, an IC50 (SIK2) of 10 to 100 nM and an IC50 (SIK3) of 0.01 to 10 nM.

With `CN(C)CCOc1ccn2c(-c3cc(F)c(C(=O)NCC(F)(F)F)c(OC(F)F)c3)cnc2c1` [compound 155, 2-(difluoromethoxy)-4-[7-[2-(dimethylamino)ethoxy]imidazo[1,2-a]pyridin-3-yl]-6-fluoro-N-(2,2,2-trifluoroethyl)benzamide] the IC50 (SIK1) was greater than 500 nM, the IC50 (SIK2) was 10 to 100 nM and the IC50 (SIK3) was 10 to 100 nM.

`COc1cc(-c2cnc3cc(Oc4ccccc4)ccn23)cc(OC(F)F)c1C(=O)NC1CC1` [compound 157, N-cyclopropyl-2-(difluoromethoxy)-6-methoxy-4-(7-phenoxyimidazo[1,2-a]pyridin-3-yl)benzamide] was tested, and the IC50 (SIK1) was 100 to 500 nM, the IC50 (SIK2) was 100 to 500 nM and the IC50 (SIK3) was 0.01 to 10 nM.

`CNC1CC(Oc2ccn3c(-c4cc(OC)c(C(=O)NC5CC5)c(OC(F)F)c4)cnc3c2)C1` (stereo not drawn) [compound 161, N-cyclopropyl-2-(difluoromethoxy)-6-methoxy-4-[7-[3-(methylamino)cyclobutoxy]imidazo[1,2-a]pyridin-3-yl]benzamide] was tested, and the IC50 (SIK1) was 10 to 100 nM, the IC50 (SIK2) was 0.01 to 10 nM and the IC50 (SIK3) was 0.01 to 10 nM.

For `COc1cc(-c2cnc3cc(OC4CC5(COC5)C4)ccn23)cc(OC(F)F)c1C(=O)NC1CC1` [compound 162, N-cyclopropyl-2-(difluoromethoxy)-6-methoxy-4-[7-(2-oxaspiro[3.3]heptan-6-yloxy)imidazo[1,2-a]pyridin-3-yl]benzamide], the IC50 (SIK1) was 10 to 100 nM, the IC50 (SIK2) was 10 to 100 nM and the IC50 (SIK3) was 0.01 to 10 nM.

For `COc1cc(-c2cnc3cc(OC4CCOC4)ccn23)cc(OC(F)F)c1C(=O)NC1CC1` (stereo not drawn) [compound 163, N-cyclopropyl-2-(difluoromethoxy)-6-methoxy-4-(7-tetrahydrofuran-3-yloxyimidazo[1,2-a]pyridin-3-yl)benzamide], the IC50 (SIK1) was 10 to 100 nM, the IC50 (SIK2) was 10 to 100 nM and the IC50 (SIK3) was 0.01 to 10 nM.

In the case of `COc1cc(-c2cnc3cc(OC4CC(C#N)C4)ccn23)cc(OC(F)F)c1C(=O)NC1CC1` (stereo not drawn) [compound 164, 4-[7-(3-cyanocyclobutoxy)imidazo [1,2-a]pyridin-3-yl]-N-cyclopropyl-2-(difluoromethoxy)-6-methoxy-benzamide], the IC50 (SIK1) is reported as 10 to 100 nM, the IC50 (SIK2) is reported as 0.01 to 10 nM and the IC50 (SIK3) is reported as 0.01 to 10 nM.

For `COc1cc(-c2cnc3cc(OCC4(N)CCCCC4)ccn23)cc(OC(F)F)c1C(=O)NC1CC1` [compound 169, 4-[7-[(1-aminocyclohexyl)methoxy]imidazo[1,2-a]pyridin-3-yl]-N-cyclopropyl-2-(difluoromethoxy)-6-methoxy-benzamide], the IC50 (SIK1) was 100 to 500 nM, the IC50 (SIK2) was 10 to 100 nM and the IC50 (SIK3) was 0.01 to 10 nM.

Work on `COc1cc(-c2cnc3cc(OCC4(N)COC4)ccn23)cc(OC(F)F)c1C(=O)NC1CC1` [compound 170, 4-[7-[(3-aminooxetan-3-yl)methoxy]imidazo[1,2-a]pyridin-3-yl]-N-cyclopropyl-2-(difluoromethoxy)-6-methoxy-benzamide] yielded an IC50 (SIK1) of 10 to 100 nM, an IC50 (SIK2) of 0.01 to 10 nM and an IC50 (SIK3) of 0.01 to 10 nM.
